Measured values as given in US10376520B2, “Methods for the treatment of cardiovascular disorders” (Galapagos NV, priority 2015, dated 2019).

Tested on: Subjects With Active Crohn's Disease
Test: [HDL] determination, Study 5 (Crohn's disease)
Format: in vivo, human
Conditions: for [HDL] Mean CFB - 10 weeks results: 200 mg q.d.
Excerpt: Double-Blind, Randomized, Placebo-Controlled, Multi-Centre Study to Investigate the Efficacy and Safety of Compound 1 in Subjects With Active Crohn's Disease With Evidence of Mucosal Ulceration.
This is a double-blind, randomized, placebo-controlled, multi-centre Phase 2 study to investigate the efficacy and safety of Compound 1 administered once daily for the treatment of active CD with evidence of mucosal ulceration. The pharmacokinetics (including a PK substudy) and pharmacodynamics of Compound 1 and metabolite in CD will also be characterised.
A total of 180 eligible subjects will be randomized to receive Compound 1 or placebo in addition to their stable background treatment (eg, corticosteroids, aminosalicylates, or CD-related antibiotics). The study will consist of 2 parts, with total treatment duration of 20 weeks. Randomization in Part 1 will be stratified according the subject's previous anti-TNF exposure/response, CRP level at Screening, and oral corticosteroid use at visit Day −1.
After the first 10 weeks of treatment in Part 1, patients will be re-randomized for Part 2 as shown in the diagram below and will be stratified according to the subject's clinical response, previous anti-TNF exposure/response, and oral corticosteroid use at visit Day −1.
The following assays were conducted at Eurofins Global Central Laboratory, Bergschot 71, 4817 PA Breda, The Netherlands, and at Quest Diagnostics, Clinical Trials, Quest House, 125-135 Staines Road, Hounslow, Middlesex, TW3 3JB, United Kingdom. The assays for Study 5 were performed at BARC Europe, 3B, Industrie Park, Zwijnaarde, B-9052 Ghent, Belgium.
This assay relies on a homogeneous enzymatic colorimetric test. In the presence of magnesium ions, dextran sulfate selectively forms water-soluble complexes with LDL, VLDL and chylomicrons which are resistant to PEG-modified enzymes.
The cholesterol concentration of [HDL]-cholesterol is determined enzymatically by cholesterol esterase and cholesterol oxidase coupled with PEG to the amino groups (approx. 40%).
In the presence of peroxidase, the hydrogen peroxide generated reacts with 4-amino-antipyrine and Sodium N-(2-hydroxy-3-sulfopropyl)-3,5-dimethoxyaniline (HSDA) to form a purple-blue dye. The color intensity of this dye is directly proportional to the cholesterol concentration and is measured photometrically.
Human serum and plasma samples [HDL] determination was done on a Roche/Hitachi Cobas c 701/702 system which automatically calculate the analyte concentration of each sample. Samples containing precipitates are centrifuged before performing the assay.

[1] = 200 mg q.d. week 0 to 10, to 100 mg q.d. week 10 to 20, week 4
[2] = 200 mg q.d. week 0 to 10, to 100 mg q.d. week 10 to 20, week 6
[3] = 200 mg q.d. week 0 to 10, to 100 mg q.d. week 10 to 20, week 10
[4] = 200 mg q.d. week 0 to 10, to 100 mg q.d. week 10 to 20, week 12
[5] = 200 mg q.d. week 0 to 10, to 100 mg q.d. week 10 to 20, week 16
[6] = 200 mg q.d. week 0 to 10, to 100 mg q.d. week 10 to 20, week 20
[7] = 200 mg q.d. week 0 to 10, to placebo week 10 to 20, week 2
[8] = 200 mg q.d. week 0 to 10, to placebo week 10 to 20, week 4
[9] = 200 mg q.d. week 0 to 10, to placebo week 10 to 20, week 6
[10] = 200 mg q.d. week 0 to 10, to placebo week 10 to 20, week 10
[11] = 200 mg q.d. week 0 to 10, to placebo week 10 to 20, week 12
[12] = 200 mg q.d. week 0 to 10, to placebo week 10 to 20, week 16
[13] = 200 mg q.d. week 0 to 10, to placebo week 10 to 20, week 20
[14] = continued 200 mg q.d. (N = 77), week 2
[15] = continued 200 mg q.d. (N = 77), week 4
[16] = continued 200 mg q.d. (N = 77), week 6
[17] = continued 200 mg q.d. (N = 77), week 10
[18] = continued 200 mg q.d. (N = 77), week 12
[19] = continued 200 mg q.d. (N = 77), week 16
[20] = continued 200 mg q.d. (N = 77), week 20
[21] = placebo week 0 to 10, then 100 mg q.d. (N = 22), week 12
[22] = placebo week 0 to 10, then 100 mg q.d. (N = 22), week 16
[23] = placebo week 0 to 10, then 100 mg q.d. (N = 22), week 20
[24] = placebo week 0 to 10, to 100 mg q.d. week 10 to 20, week 12
[25] = placebo week 0 to 10, to 100 mg q.d. week 10 to 20, week 16
[26] = placebo week 0 to 10, to 100 mg q.d. week 10 to 20, week 20

## O=C(Nc1nc2cccc(-c3ccc(CN4CCS(=O)(=O)CC4)cc3)n2n1)C1CC1 [Compound 1, cyclopropanecarboxylic acid {5-[4-(1,1-dioxo-thiomorpholin-4-ylmethyl)-phenyl]-[1,2,4]triazolo[1,5-a]pyridin-2yl}-amide]
[1]
  [HDL] Mean CFB - 20 weeks results: 25.33%
  [HDL] Median CFB - 10 weeks results: 16.75%
[2]
  [HDL] Mean CFB - 20 weeks results: 25.93%
  [HDL] Median CFB - 10 weeks results: 23.04%
[3]
  [HDL] Mean CFB - 20 weeks results: 26.29%
  [HDL] Median CFB - 10 weeks results: 19.61%
[4]
  [HDL] Mean CFB - 20 weeks results: 14.27%
  [HDL] Median CFB - 10 weeks results: 10.66%
[5]
  [HDL] Mean CFB - 20 weeks results: 11.19%
  [HDL] Median CFB - 10 weeks results: 2.24%
[6]
  [HDL] Mean CFB - 20 weeks results: 15.54%
  [HDL] Median CFB - 10 weeks results: 10.18%
[7]
  [HDL] Mean CFB - 20 weeks results: 13.75%
  [HDL] Median CFB - 10 weeks results: 13.54%
[8]
  [HDL] Mean CFB - 20 weeks results: 23.62%
  [HDL] Median CFB - 10 weeks results: 27.96%
[9]
  [HDL] Mean CFB - 20 weeks results: 13.52%
  [HDL] Median CFB - 10 weeks results: 13.45%
[10]
  [HDL] Mean CFB - 20 weeks results: 14.87%
  [HDL] Median CFB - 10 weeks results: 15.66%
[11]
  [HDL] Mean CFB - 20 weeks results: −3.87%
  [HDL] Median CFB - 10 weeks results: −1.75%
[12]
  [HDL] Mean CFB - 20 weeks results: −7.46%
  [HDL] Median CFB - 10 weeks results: −3.07%
[13]
  [HDL] Mean CFB - 20 weeks results: −8.40%
  [HDL] Median CFB - 10 weeks results: −4.82%
Week 2
  [HDL] Mean CFB - 10 weeks results: 17.940%
Week 4
  [HDL] Mean CFB - 10 weeks results: 19.414%
Week 6
  [HDL] Mean CFB - 10 weeks results: 20.199%
Week 10
  [HDL] Mean CFB - 10 weeks results: 19.734%
[14]
  [HDL] Mean CFB - 20 weeks results: 0.23 mmol/L
  [HDL] Median CFB - 20 weeks results: 0.21 mmol/L
[15]
  [HDL] Mean CFB - 20 weeks results: 0.18 mmol/L
  [HDL] Median CFB - 20 weeks results: 0.16 mmol/L
[16]
  [HDL] Mean CFB - 20 weeks results: 0.24 mmol/L
  [HDL] Median CFB - 20 weeks results: 0.21 mmol/L
[17]
  [HDL] Mean CFB - 20 weeks results: 0.22 mmol/L
  [HDL] Median CFB - 20 weeks results: 0.25 mmol/L
[18]
  [HDL] Mean CFB - 20 weeks results: 0.20 mmol/L
  [HDL] Median CFB - 20 weeks results: 0.15 mmol/L
[19]
  [HDL] Mean CFB - 20 weeks results: 0.17 mmol/L
  [HDL] Median CFB - 20 weeks results: 0.20 mmol/L
[20]
  [HDL] Mean CFB - 20 weeks results: 0.10 mmol/L
  [HDL] Median CFB - 20 weeks results: 0.15 mmol/L
[21]
  [HDL] Mean CFB - 20 weeks results: 0.03 mmol/L
  [HDL] Median CFB - 20 weeks results: 0.12 mmol/L
[22]
  [HDL] Mean CFB - 20 weeks results: 0.09 mmol/L
  [HDL] Median CFB - 20 weeks results: 0.12 mmol/L
[23]
  [HDL] Mean CFB - 20 weeks results: 0.00 mmol/L
  [HDL] Median CFB - 20 weeks results: 0.10 mmol/L
[24]
  [HDL] Mean CFB - 20 weeks results: 5.75%
  [HDL] Median CFB - 10 weeks results: 8.64%
[25]
  [HDL] Mean CFB - 20 weeks results: 10.06%
  [HDL] Median CFB - 10 weeks results: 8.63%
[26]
  [HDL] Mean CFB - 20 weeks results: 3.77%
  [HDL] Median CFB - 10 weeks results: 11.27%
